# EP0790989B1, “CERTAIN SUBSTITUTED BENZYLAMINE DERIVATIVES; A NEW CLASS OF NEUROPEPTIDE Y1 SPECIFIC LIGANDS” (PFIZER INC., priority 1994, dated 1996)
# Counter-ions that a name gives are not always drawn.
# Biological target: T1, human NPY1 receptors (Homo sapiens, UniProt P25929)
# T1 construct: SK-N-MC cells were purchased from ATCC (Rockville, MD); host or cells: SK-N-MC cells (human neuroepithelioma line), intact confluent monolayers
# T1 sequence (P25929 1-384): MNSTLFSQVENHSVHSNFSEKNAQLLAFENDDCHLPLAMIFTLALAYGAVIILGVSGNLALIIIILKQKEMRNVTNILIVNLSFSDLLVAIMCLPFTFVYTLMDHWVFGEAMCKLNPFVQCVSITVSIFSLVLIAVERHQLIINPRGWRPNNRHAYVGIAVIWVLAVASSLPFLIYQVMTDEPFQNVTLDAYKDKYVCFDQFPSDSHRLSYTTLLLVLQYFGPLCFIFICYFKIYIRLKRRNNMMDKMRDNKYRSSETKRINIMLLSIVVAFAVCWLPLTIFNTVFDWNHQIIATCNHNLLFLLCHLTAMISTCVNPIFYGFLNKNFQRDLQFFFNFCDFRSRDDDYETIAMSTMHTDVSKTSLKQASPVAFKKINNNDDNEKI
# Assay: Assay for Human NPY1 receptor binding activity ([125I]PYY binding to SK-N-MC cells)
# Conditions: IC50, [125I]PYY (~50 pM) binding to confluent SK-N-MC cells, 3 hour incubation at room temperature
# Protocol: The procedure used is similar to that described by Gordon et al. (J. Neurochem. 55:506-513, 1990). SK-N-MC cells were purchased from ATCC (Rockville, MD). Cells were maintained at 37°C and 5% CO2 in Dulbecco's modified essential media (DMEM) with L-glutamine and 110 mg/L sodium pyruvate, which was supplemented with 10% fetal bovine serum and 25 mM HEPES (pH 7.3). The binding assay was performed in 24-well plates (Falcon) when the cells were confluent. Taking care to not disturb the cells on the bottom of the wells, the media was aspirated, and 0.5 ml of Dulbecco's phosphate buffered saline (DPBS) with calcium and magnesium were added to each well. The DPBS was aspirated and an additional aliquot of DPBS was added and aspirated. To begin the assay, binding buffer consisting of serum-free DMEM containing 0.5% bovine serum albumin, 0.1% bacitracin and 0.1 mM phenylmethylsulfonylfluoride was added to each well. The cells and the binding buffer preincubated for 30 minutes at room temperature, at which point the drug dilution and [^125I]PYY (NEN-DuPont: 50000 -75000 cpm ∼ 50 pM) were added to yield a final volume of 250 ul. Nonspecific binding was defined with […] NPY (porcine or human, Bachem California). After a 3 hour incubation at room temperature, the plates were then put on ice and the wells were aspirated. The cells were washed 4-6 times with 0.5 ml of ice-cold DPBS. A dilute solution of Triton X-100 (1%) was then added to each well. After approximately 1 hour at room temperature, an aliquot from each well was transferred to a 12x75 mm testtube, and the amount of [^125I] was quantitated on a gamma counter with an efficiency of 80-85% (Genesys 5000, Laboratory Technologies). IC50 values were calculated with the non-linear curve fitting program RS/1 (BBN Software Products Corp., Cambridge, MA).
row,SMILES,IC50
1,"CCOc1cccc(C2(N3CCN(c4ccccc4)CC3)CCCCC2)c1 [Compound 9, 1-(3-Ethoxyphenyl)-1-(4-phenylpiperazin-1-yl)-cyclohexane dihydrochloride]",137 nM
2,"COc1cccc(C2(N3CCN(c4ccccc4)CC3)CCC(C)CC2)c1 (stereo not drawn) [Compound 13, 1-(3-Methoxyphenyl)-1-(4-phenylpiperazin-1-yl)-4-methyl-cyclohexane dihydrochloride]",67 nM
3,"CCOc1cccc(C2(N3CCN(c4ccccc4)CC3)CCC(C)CC2)c1 (stereo not drawn) [Compound 18, 1-(3-Ethoxyphenyl)-1-(4-phenylpiperazin-1-yl)-4-methyl-cyclohexane dihydrochloride]",75 nM
4,"CCOc1cccc(C2(N3CCN(c4ccccc4)CC3)CCC(CC)CC2)c1 (stereo not drawn) [Compound 20, 1-(3-Ethoxyphenyl)-1-(4-phenylpiperazin-1-yl)-4-ethyl-cyclohexane dihydrochloride]",76 nM
5,"CCOc1cccc(C2(N3CCN(c4ccccc4)CC3)CCC(CC)CC2)c1 (stereo not drawn) [Compound 21, 1-(3-Ethoxyphenyl)-1-(4-phenylpiperazin-1-yl)-4-ethyl-cyclohexane dihydrochloride]",525 nM
6,"COCOc1cccc(C2(N3CCN(c4ccccc4)CC3)CCC(C)CC2)c1 (stereo not drawn) [Compound 29, 1-(3-Methoxymethoxyphenyl)-1-(4-phenylpiperazin-1-yl)-4-methyl-cyclohexane dihydrochloride]",39 nM
